Patent US11014902B2, “MYC G-quadruplex stabilizing small molecules and their use” (The United States of America, as represented by the …, priority 2015, dated 2021)

Experiments:
[1] = system: peripheral blood mononucleocytes; test: Viability of peripheral blood mononucleocytes; assay type: cell-based; details: healthy volunteer cells; doses 25% higher than for cell treatments
Description: (§1) Since two thirds of multiple myeloma cases involve deregulated c-MYC expression (Kuehl and Bergsagel, Blood 2012, 120, 2351; Shou, et al., Proc Natl Acad Sci USA 2000, 97, 228), we elected to evaluate the cell viability effects of Compound 1 in a multiple myeloma model. […] This suppression was maintained over 72 hours, which is notable given the characteristic rapid replenishment of the protein—a phenomenon that complicates targeting c-Myc at the protein level (FIG. 4C). This effect was maintained across a genetically diverse set of 4 multiple myeloma lines. We observed decreases in c-MYC translation in all lines tested, and this effect also correlated with decreases in viability (FIG. 4D).

[2] = system: CA46 Burkitt's Lymphoma line; test: CA46 cell viability; assay type: cell-based, human
Description: as §1
Human multiple myeloma and Burkitt's Lymphoma cell lines L363, CA46, MM-1R, KMS-11, and MM-1S were cultured and authenticated as previously described (Simmons, et al., Molecular oncology 2014, 8, 261). All plasma derived cell lines were cultured in RPMI-1640 (2 mM L-glutamine, 10% fetal bovine serum (FBS), 100 U/ml penicillin, 100 μg/ml streptomycin: Gibco) and incubated at 37° C. with 5% CO2. […] MTS reagent was then directly added, incubated at 37° C. for 90 min, and absorbance of MTS formazan was read at 500 nm on an Omega 640 spectrophotometer. Percentage cell viability was normalized to the absorbance of untreated (DMSO) wells. […]

wild type Pu27 sequence = test: PCR stop assay, wild type sequence; assay type: biochemical; details: concentrations comparable to the Kd
[3] = system: c-Myc protein in H157 cells; test: c-Myc protein expression by Western blot, H157; assay type: cell-based, human; details: 10 μM
Description: (§2) The effect of Compound 23 on the expression of c-Myc protein in the human lung cancer cell lines H1299 and H157 was also assayed. H1299 and H157 cells were treated with 10 μM Compound 23 and c-Myc protein expression levels quantified by Western blot. In Compound 23-treated H1299 cells, c-Myc protein expression levels were approximately 55% compared to untreated control cells. In Compound 23-treated H157 cells, c-Myc protein expression levels were approximately 74% compared to untreated control cells.

[4] = Pharmacokinetic evaluation, blood plasma levels by mass spectrometry; assay type: in vivo; details: single injection 19 mg/kg, female nude mice; for Tmax / half-life: mouse
Description: The blood plasma levels of Compound 23 after a single IP or IV injection (19 mg/kg) in female nude mice were determined by mass spectrometry (see FIG. 12 and the following table).

[5] = system: c-Myc protein in H1299 cells; test: c-Myc protein expression by Western blot, H1299; assay type: cell-based, human; details: 10 μM
Description: as §2

SMILES	viability [1]	cell viability [2]	inhibition of PCR amplification (wild type Pu27 sequence)	c-Myc protein expression levels compared to untreated control cells [3]	Kel ([4]; IP)	Kel ([4]; IV)	Tmax ([4]; IP)	half-life ([4]; IP)	Tmax ([4]; IV)	half-life ([4]; IV)	c-Myc protein expression levels compared to untreated control cells [5]
Cc1ccc(NC(=O)c2c(C)oc3ccc(O)c(CN4CCCCCC4)c23)cc1 [Compound 1]	did not alter viability	negligible changes	dose-dependent inhibition								
Cc1oc2ccc(O)c(CN3CCCCCC3)c2c1C(=O)Nc1ccc(C(F)(F)F)cc1 [Compound 23]				approximately 74%	0.277 h⁻¹	0.277 h⁻¹	1 h	6.5 h	0.38 h	2.25 h	approximately 55%
